{"source": "patent US11274129B2", "about": "“Methods for protein tyrosine phosphorylation profiling with variant SH2 domains” (priority 2016, dated 2022)", "key": {"[1]": {"molecular_target": "RSKL-pTyr^423 peptide YQHpYDLDLKD", "conditions": "peptide RSKL-pTyr^423 YQHpYDLDLKD; read-out: equilibrium dissociation constant (Kd); cited from earlier work"}, "[2]": {"system": "mixture of 54 different pTyr-including peptides derived from 54 TK activation loops", "test": "Capture of pTyr-including peptides from a mixture of TK activation loop peptides, scheduled PRM", "format": "binding", "experimental": "Equal molar amounts (10 nmole) of the wild-type (wt) human Src SH2 domain and the DM and TrM human Src SH2 Superbinders (SEQ ID NO: 14 and 5, respectively) expressed with His6 and GST tags were used to capture pTyr-including peptides from a mixture of 54 different pTyr-including peptides (10 pmole each) derived from 54 TK activation loops. The isolated peptides were identified by PRM and quantified based on the corresponding MS peak area. 1.8% of the eluted peptides were injected into a Q-Exactive (Thermo Fisher) preceded with a nano-LC system.\nShown are the amounts of pTyr-including peptides captured, based on the corresponding peak area of PRM signal, by each of the parent human Src SH2 domain and the DM and TrM human Src SH2 Superbinders."}, "[3]": {"molecular_target": "ShcA-pTyr^317 peptide DPSpYVNVQNL", "conditions": "peptide ShcA-pTyr^317 DPSpYVNVQNL; read-out: equilibrium dissociation constant (Kd); cited from earlier work"}, "[4]": {"molecular_target": "MidT-pTyr^324 peptide EPQpYEEIPIYL", "conditions": "peptide MidT-pTyr^324 EPQpYEEIPIYL; read-out: equilibrium dissociation constant (Kd); cited from earlier work"}, "[5]": {"molecular_target": "ShcA-pTyr^239 peptide DHQpYYNDFPG", "conditions": "peptide ShcA-pTyr^239 DHQpYYNDFPG; read-out: equilibrium dissociation constant (Kd); cited from earlier work"}, "Designed peptide GGpYGG": {"molecular_target": "Designed peptide GGpYGG", "conditions": "read-out: equilibrium dissociation constant (Kd); cited from earlier work"}, "[6]": {"molecular_target": "VEGFR1-pTyr^1213 peptide DVRpYVNAAKF", "conditions": "peptide VEGFR1-pTyr^1213 DVRpYVNAAKF; read-out: equilibrium dissociation constant (Kd); cited from earlier work"}, "[7]": {"molecular_target": "EGFR-pTyr^1110 peptide NPVpYHNQPLN", "conditions": "peptide EGFR-pTyr^1110 NPVpYHNQPLN; read-out: equilibrium dissociation constant (Kd); cited from earlier work"}, "[8]": {"molecular_target": "EGFR-pTyr^978 peptide PQRpYLVIQGD", "conditions": "peptide EGFR-pTyr^978 PQRpYLVIQGD; read-out: equilibrium dissociation constant (Kd); cited from earlier work"}}}
{"substance": "Wild type: wild-type (parent) human Src SH2 domain; SEQ ID NO: 4, His6/GST-tagged form SEQ ID NO: 10 [reference compound]", "values": [{"measurement": "Kd", "setting": "[1]", "value": 3.9, "unit": "µM"}, {"measurement": "number of the 54 pTyr-including peptides captured / detected by PRM", "setting": "[2]; 10 nmole SH2 domain, 10 pmole each peptide", "value": 22}, {"measurement": "PRM signal peak area", "setting": "[2]; BLK (pTyr389) IIDSEpYTAQEGAK, fragment ion b2", "value": 0}, {"measurement": "PRM signal peak area", "setting": "[2]; BMX (pTyr566) YVLDDQpYVSSVGTK, fragment ion b2", "value": 0}, {"measurement": "PRM signal peak area", "setting": "[2]; BTK (pTyr551) YVLDDEpYTSSVGSK, fragment ion b2", "value": "4,214"}, {"measurement": "PRM signal peak area", "setting": "[2]; DDR1 (pTyr796/797) NLYAGDpYpYR, fragment ion b2", "value": "47,729"}, {"measurement": "PRM signal peak area", "setting": "[2]; DDR2 (pTyr740/741) NLYSGDpYpYR, fragment ion y6", "value": "15,251"}, {"measurement": "PRM signal peak area", "setting": "[2]; EPHA1 (pTyr781) LLDDFDGTpYETQGGK, fragment ion y9", "value": 0}, {"measurement": "PRM signal peak area", "setting": "[2]; EPHA2 (pTyr772) VLEDDPEATpYTTSGGK, fragment ion y11", "value": 0}, {"measurement": "PRM signal peak area", "setting": "[2]; EPHA3 (pTyr779) VLEDDPEAApYTTR, fragment ion y8", "value": 0}, {"measurement": "PRM signal peak area", "setting": "[2]; EPHA6 (pTyr830) VLEDDPEAApYTTTGGK, fragment ion b2", "value": "2,742"}, {"measurement": "PRM signal peak area", "setting": "[2]; EPHA8 (pTyr793) VLEDDPDAApYTTTGGK, fragment ion y11", "value": 0}, {"measurement": "PRM signal peak area", "setting": "[2]; EPHB1 (pTyr778) YLQDDTSDPTpYTSSLGGK, fragment ion y10", "value": 0}, {"measurement": "PRM signal peak area", "setting": "[2]; EPHB2 (pTyr780) FLEDDTSDPTpYTSALGGK, fragment ion Y3", "value": "10,833"}, {"measurement": "PRM signal peak area", "setting": "[2]; EPHB3 (pTyr792) FLEDDPSDPTpYTSSLGGK, fragment ion y10", "value": 0}, {"measurement": "PRM signal peak area", "setting": "[2]; EPHB4 (pTyr774) FLEENSSDPTpYTSSLGGK, fragment ion y10", "value": 0}, {"measurement": "PRM signal peak area", "setting": "[2]; ERBB2 (pTyr877) LLDIDETEpYHADGGK, fragment ion b3", "value": 0}, {"measurement": "PRM signal peak area", "setting": "[2]; ERBB3 (pTyr866) QLLpYSEAK, fragment ion y2", "value": "41,881"}, {"measurement": "PRM signal peak area", "setting": "[2]; FER (pTyr714) QEDGGVpYSSSGLK, fragment ion y7", "value": 0}, {"measurement": "PRM signal peak area", "setting": "[2]; FES (pTyr713) EEADGVpYAASGGLR, fragment ion y8", "value": 0}, {"measurement": "PRM signal peak area", "setting": "[2]; FGFR1 (pTyr653/654) DIHHIDpYpYK, fragment ion b6", "value": "28,495"}, {"measurement": "PRM signal peak area", "setting": "[2]; FGFR2 (pTyr656/657) DINNIDpYpYK, fragment ion y4", "value": "51,625"}, {"measurement": "PRM signal peak area", "setting": "[2]; FGFR3 (pTyr647/648) DVHNLDpYpYK, fragment ion b3", "value": "103,678"}, {"measurement": "PRM signal peak area", "setting": "[2]; FGFR4 (pTyr642/643) GVHHIDpYpYK, fragment ion b3", "value": "29,764"}, {"measurement": "PRM signal peak area", "setting": "[2]; FRK (pTyr387) VDNEDIpYESR, fragment ion y6", "value": 0}, {"measurement": "PRM signal peak area", "setting": "[2]; GSK3 (pTyr279/216) GEPNVSpYICSR, fragment ion y6", "value": 0}, {"measurement": "PRM signal peak area", "setting": "[2]; HCK (pTyr411) VIEDNEpYTAR, fragment ion b2", "value": 0}, {"measurement": "PRM signal peak area", "setting": "[2]; INSRR (pTyr1145/1146) DVYETDpYpYR, fragment ion y5", "value": 0}, {"measurement": "PRM signal peak area", "setting": "[2]; ITK (pTyr512) FVLDDQpYTSSTGTK, fragment ion y11", "value": 0}, {"measurement": "PRM signal peak area", "setting": "[2]; JAK1 (pTyr1034/1035) EpYpYTVK, fragment ion y2", "value": "58,254"}, {"measurement": "PRM signal peak area", "setting": "[2]; JAK2 (pTyr221) IQDpYHILTR, fragment ion Y3", "value": 0}, {"measurement": "PRM signal peak area", "setting": "[2]; JAK3 (pTyr980/981) DpYpYVVR, fragment ion y2", "value": "23,291"}, {"measurement": "PRM signal peak area", "setting": "[2]; KIT (pTyr823) NDSNpYVVK, fragment ion b2", "value": 0}, {"measurement": "PRM signal peak area", "setting": "[2]; LMTK2 (pTyr295) EDpYIETDDK, fragment ion b2", "value": 0}, {"measurement": "PRM signal peak area", "setting": "[2]; LMTK3 (pTyr296/297) EDpYpYLTPER, fragment ion y3", "value": "29,887"}, {"measurement": "PRM signal peak area", "setting": "[2]; MERTK (pTyr753/754) IYSGDpYpYR, fragment ion b2", "value": 0}, {"measurement": "PRM signal peak area", "setting": "[2]; MET (pTyr1234/1235) EpYpYSVHNK, fragment ion y2", "value": "26,824"}, {"measurement": "PRM signal peak area", "setting": "[2]; MUSK (pTyr755/756) NIYSADpYpYK, fragment ion y2", "value": "47,647"}, {"measurement": "PRM signal peak area", "setting": "[2]; NTRK1 (pTyr680/681) DIYSTDpYpYR, fragment ion b2", "value": "21,736"}, {"measurement": "PRM signal peak area", "setting": "[2]; NTRK2 (pTyr706/707) DVYSTDpYpYR, fragment ion y4", "value": "39,632"}, {"measurement": "PRM signal peak area", "setting": "[2]; PGFRB (pTyr857) DSNpYISK, fragment ion y2", "value": 0}, {"measurement": "PRM signal peak area", "setting": "[2]; PTK7 (pTyr960/961) DVYNSEpYpYHFR, fragment ion b2", "value": 0}, {"measurement": "PRM signal peak area", "setting": "[2]; RET (pTyr905) DVYEEDSpYVK, fragment ion b2", "value": 0}, {"measurement": "PRM signal peak area", "setting": "[2]; RON (pTyr1238/1239) EpYpYSVQQHR, fragment ion y4", "value": "5,434"}, {"measurement": "PRM signal peak area", "setting": "[2]; ROR1 (pTyr645/646) EIYSADpYpYR, fragment ion y6", "value": "32,356"}, {"measurement": "PRM signal peak area", "setting": "[2]; ROR2 (pTyr645/646) EVYAADpYpYK, fragment ion y5", "value": "85,894"}, {"measurement": "PRM signal peak area", "setting": "[2]; SRC (pTyr419) LIEDNEpYTAR, fragment ion b2", "value": 0}, {"measurement": "PRM signal peak area", "setting": "[2]; SRMS (pTyr380) DDIpYSPSSSSK, fragment ion y8", "value": 0}, {"measurement": "PRM signal peak area", "setting": "[2]; TEC (pTyr519) YVLDDQpYTSSSGAK, fragment ion b2", "value": 0}, {"measurement": "PRM signal peak area", "setting": "[2]; TIE1 (pTyr1007) GEEVpYVK, fragment ion b2", "value": 0}, {"measurement": "PRM signal peak area", "setting": "[2]; TIE2 (pTyr992) GQEVpYVK, fragment ion b2", "value": 0}, {"measurement": "PRM signal peak area", "setting": "[2]; TXK (pTyr420) YVLDDEpYVSSFGAK, fragment ion b2", "value": "1,519"}, {"measurement": "PRM signal peak area", "setting": "[2]; TYK2 (pTyr1054/1055) AVPEGHEpYpYR, fragment ion y6", "value": "11,551"}, {"measurement": "PRM signal peak area", "setting": "[2]; VGFR1 (pTyr1053) NPDpYVR, fragment ion y3", "value": 0}, {"measurement": "PRM signal peak area", "setting": "[2]; VGFR2 (pTyr1059) DPDpYVR, fragment ion Y3", "value": 0}, {"measurement": "Kd", "setting": "[3]", "value": 2200, "unit": "nM"}, {"measurement": "Kd", "setting": "[4]", "value": 130, "unit": "nM"}, {"measurement": "Kd", "setting": "[5]", "value": 700, "unit": "nM"}, {"measurement": "Kd", "setting": "Designed peptide GGpYGG", "value": "> 30", "unit": "µM"}, {"measurement": "Kd", "setting": "[6]", "value": 6.5, "unit": "µM"}, {"measurement": "Kd", "setting": "[7]", "value": 6.9, "unit": "µM"}, {"measurement": "Kd", "setting": "[8]", "value": 3.7, "unit": "µM"}]}
